Assays:
Type in all cases: biochemical
hCA I = target: T1, hCA I (Homo sapiens, UniProt P00915); assay: stopped-flow CO2 hydrase assay, hCA I; settings: recombinant enzyme, 15 min preincubation, pH 8.3, mean from 3 assays
T1 construct: made in house
Description: (§1) An Applied Photophysics stopped-flow instrument (Applied Photophysics, Leatherhead, UK) was used for assaying the CA-catalyzed CO2 hydration activity [31]. […] The uncatalyzed rates were determined in the same manner and subtracted from the total observed rates. Stock solutions of inhibitor (0.1 mM) were prepared in distilled-deionized water and dilutions up to 0.005 nM were done thereafter with the assay buffer. Inhibitor and enzyme solutions were preincubated together for 15 min at room temperature prior to assay, in order to allow formation of the E–I complex. The inhibition constants were obtained by non-linear least-squares methods using PRISM 3 and the ChengPrusoff equation, as reported earlier, and represent the mean from at least three different determinations. All CA isozymes were recombinant ones obtained in-house.

hCA II = target: T2, hCA II (Homo sapiens, UniProt P00918); assay: stopped-flow CO2 hydrase assay, hCA II; settings: recombinant enzyme, 15 min preincubation, pH 8.3, mean from 3 assays
T2 construct: made in house
Description: as §1

hCA XII = target: T3, hCA XII (Homo sapiens, UniProt O43570); assay: stopped-flow CO2 hydrase assay, hCA XII; settings: for Selectivity II/XII: ratio Ki hCA II / Ki hCA XII; for Ki: recombinant enzyme, 15 min preincubation, pH 8.3, mean from 3 assays
T3 construct: made in house
Description: as §1

hCA IX = target: T4, hCA IX (Homo sapiens, UniProt Q16790); assay: stopped-flow CO2 hydrase assay, hCA IX; settings: for Selectivity II/IX: ratio Ki hCA II / Ki hCA IX; for Ki: recombinant enzyme, 15 min preincubation, pH 8.3, mean from 3 assays
T4 construct: made in house
Description: as §1

hCA IV = target: T5, hCA IV (Homo sapiens, UniProt P22748); assay: stopped-flow CO2 hydrase assay, hCA IV; settings: recombinant enzyme, 15 min preincubation, pH 8.3, mean from 3 assays
T5 construct: made in house
T5 sequence (P22748 19-312): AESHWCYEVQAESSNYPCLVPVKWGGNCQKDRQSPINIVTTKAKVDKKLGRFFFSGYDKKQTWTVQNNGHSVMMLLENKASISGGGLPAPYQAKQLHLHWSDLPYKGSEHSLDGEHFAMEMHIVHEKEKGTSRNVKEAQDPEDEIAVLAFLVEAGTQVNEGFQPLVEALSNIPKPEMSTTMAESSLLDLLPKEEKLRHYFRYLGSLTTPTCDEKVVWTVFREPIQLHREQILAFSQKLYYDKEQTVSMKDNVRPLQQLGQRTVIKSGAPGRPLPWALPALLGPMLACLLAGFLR
Description: as §1

T1 sequence (P00915 whole entry): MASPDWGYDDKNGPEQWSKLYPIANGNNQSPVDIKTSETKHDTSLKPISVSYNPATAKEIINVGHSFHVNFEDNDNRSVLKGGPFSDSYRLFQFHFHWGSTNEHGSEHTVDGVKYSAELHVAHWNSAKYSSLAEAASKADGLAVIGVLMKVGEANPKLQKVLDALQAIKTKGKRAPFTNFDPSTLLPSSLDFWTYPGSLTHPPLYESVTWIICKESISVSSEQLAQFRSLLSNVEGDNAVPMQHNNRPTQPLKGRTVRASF
T3 sequence (O43570 25-354): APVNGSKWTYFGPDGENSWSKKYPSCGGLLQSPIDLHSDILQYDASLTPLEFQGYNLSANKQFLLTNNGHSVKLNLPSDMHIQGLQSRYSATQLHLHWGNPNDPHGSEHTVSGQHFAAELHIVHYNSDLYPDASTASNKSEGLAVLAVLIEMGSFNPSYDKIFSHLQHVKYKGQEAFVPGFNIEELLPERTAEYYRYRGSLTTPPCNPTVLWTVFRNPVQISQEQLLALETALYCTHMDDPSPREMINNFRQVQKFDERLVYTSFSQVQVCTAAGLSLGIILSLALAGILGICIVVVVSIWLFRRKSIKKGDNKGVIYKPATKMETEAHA

Structure (SMILES)	Ki (hCA I) [nM]	Ki (hCA II) [nM]	Selectivity II/XII (hCA XII)	Ki (hCA XII) [nM]	Selectivity II/IX (hCA IX)	Ki (hCA IX) [nM]	Ki (hCA IV) [nM]
NS(=O)(=O)c1ccc(Nc2nc(N[C@@H](Cc3c[nH]c4ccccc34)C(=O)O)nc(N[C@@H](Cc3c[nH]c4ccccc34)C(=O)O)n2)cc1 [compound 6]	48.3	1.61	0.20	8.21	0.04	45.2	59.3
NS(=O)(=O)c1ccc(Nc2nc(NC(CO)C(=O)O)nc(NC(CO)C(=O)O)n2)cc1 (stereo not drawn) [compound 7]	6560	523	7.30	71.9	1.12	465	8700
NS(=O)(=O)c1ccc(CNc2nc(NC(Cc3ccc(O)cc3)C(=O)O)nc(NC(Cc3ccc(O)cc3)C(=O)O)n2)cc1 (stereo not drawn) [compound 12, 2,2′-[(6-({4-sulfamoylbenzyl}amino)-1,3,5-triazine-2,4-diyl)diimino]bis(3-(4-hydroxyphenyl)propanoic acid)]	75.7	53.1	6.10	8.7	0.61	87.3	244
CC(Nc1nc(Nc2ccc(S(N)(=O)=O)cc2)nc(NC(C)C(=O)O)n1)C(=O)O (stereo not drawn) [compound 4]	5540	782	88.10	8.88	1.52	515	88.1
CC(O)C(Nc1nc(NCc2ccc(S(N)(=O)=O)cc2)nc(NC(C(=O)O)C(C)O)n1)C(=O)O (stereo not drawn) [compound 15, 2,2′-[(6-({4-sulfamoylbenzyl}amino)-1,3,5-triazine-2,4-diyl)diimino]bis(3-hydroxybutanoic acid)]	684	76.6	1.70	44.9	0.21	365	> 10000
NS(=O)(=O)c1ccc(CNc2nc(NC(CO)C(=O)O)nc(NC(CO)C(=O)O)n2)cc1 (stereo not drawn) [compound 14, 2,2′-[(6-({4-sulfamoylbenzyl}amino)-1,3,5-triazine-2,4-diyl)diimino]bis(3-hydroxypropanoic acid)]	653	252	3.10	81.5	0.96	263	6100
NC(=O)CC(Nc1nc(Nc2ccc(S(N)(=O)=O)cc2)nc(NC(CC(N)=O)C(=O)O)n1)C(=O)O (stereo not drawn) [compound 9]	> 10000	656	17.10	38.4	0.73	895	5330
NC(=O)CCC(Nc1nc(Nc2ccc(S(N)(=O)=O)cc2)nc(NC(CCC(N)=O)C(=O)O)n1)C(=O)O (stereo not drawn) [compound 10]	9200	775	11.30	68.3	1.24	625	8410
CC(O)C(Nc1nc(Nc2ccc(S(N)(=O)=O)cc2)nc(NC(C(=O)O)C(C)O)n1)C(=O)O (stereo not drawn) [compound 8]	7270	904	26.10	34.6	1.04	867	4910
NS(=O)(=O)c1ccc(Nc2nc(NC(Cc3ccc(O)cc3)C(=O)O)nc(NC(Cc3ccc(O)cc3)C(=O)O)n2)cc1 (stereo not drawn) [compound 5]	98.3	3.61	0.40	9.41	0.06	57.8	74.6
NS(=O)(=O)c1ccc(CNc2nc(NC(Cc3c[nH]c4ccccc34)C(=O)O)nc(NC(Cc3c[nH]c4ccccc34)C(=O)O)n2)cc1 (stereo not drawn) [compound 13, 2,2′-[(6-({4-sulfamoylbenzyl}amino)-1,3,5-triazine-2,4-diyl)diimino]bis(3-(1H-indol-3-yl)propanoic acid)]	30.5	6.22	0.70	8.6	0.09	66.4	93.6
CC(Nc1nc(NCc2ccc(S(N)(=O)=O)cc2)nc(NC(C)C(=O)O)n1)C(=O)O (stereo not drawn) [compound 11, 2,2′-[(6-({4-sulfamoylbenzyl}amino)-1,3,5-triazine-2,4-diyl)diimino]dipropanoic acid]	636	182	19.60	9.3	2.87	63.5	470

Further lines, results first:

Ki (hCA I) [nM]	Ki (hCA II) [nM]	Selectivity II/XII (hCA XII)	Ki (hCA XII) [nM]	Selectivity II/IX (hCA IX)	Ki (hCA IX) [nM]	Ki (hCA IV) [nM]	Structure (SMILES)
829	259	4.10	62.7	2.89	89.5	> 10000	CC(O)C(Nc1nc(NCCc2ccc(S(N)(=O)=O)cc2)nc(NC(C(=O)O)C(C)O)n1)C(=O)O (stereo not drawn) [compound 22, 2,2′-[(6-({2-(4-sulfamoylphenyl)ethyl}amino)-1,3,5-triazine-2,4-diyl)diimino]bis(3-hydroxybutanoic acid)]
60.8	12.8	1.70	7.5	0.21	61.1	879	NS(=O)(=O)c1ccc(CCNc2nc(NC(Cc3ccc(O)cc3)C(=O)O)nc(NC(Cc3ccc(O)cc3)C(=O)O)n2)cc1 (stereo not drawn) [compound 19, 2,2′-[(6-({2-(4-sulfamoylphenyl)ethyl}amino)-1,3,5-triazine-2,4-diyl)diimino]bis(3-(4-hydroxyphenyl)propanoic acid)]
834	251	5.70	44	2.63	95.3	> 10000	NC(=O)CC(Nc1nc(NCc2ccc(S(N)(=O)=O)cc2)nc(NC(CC(N)=O)C(=O)O)n1)C(=O)O (stereo not drawn) [compound 16, 2,2′-[(6-({4-sulfamoylbenzyl}amino)-1,3,5-triazine-2,4-diyl)diimino]bis(3-carbamoylpropanoic acid)]
684	191	3.40	57	0.40	480	> 10000	NC(=O)CCC(Nc1nc(NCCc2ccc(S(N)(=O)=O)cc2)nc(NC(CCC(N)=O)C(=O)O)n1)C(=O)O (stereo not drawn) [compound 24, 2,2′-[(6-({2-(4-sulfamoylphenyl)ethyl}amino)-1,3,5-triazine-2,4-diyl)diimino]bis(4-carbamoylbutanoic acid)]
886	136	2.60	53.1	0.36	377	> 10000	NC(=O)CC(Nc1nc(NCCc2ccc(S(N)(=O)=O)cc2)nc(NC(CC(N)=O)C(=O)O)n1)C(=O)O (stereo not drawn) [compound 23, 2,2′-[(6-({2-(4-sulfamoylphenyl)ethyl}amino)-1,3,5-triazine-2,4-diyl)diimino]bis(3-carbamoylpropanoic acid)]
41.4	3.54	0.40	8.4	0.01	308	542	NS(=O)(=O)c1ccc(CCNc2nc(NC(Cc3c[nH]c4ccccc34)C(=O)O)nc(NC(Cc3c[nH]c4ccccc34)C(=O)O)n2)cc1 (stereo not drawn) [compound 20, 2,2′-[(6-({2-(4-sulfamoylphenyl)ethyl}amino)-1,3,5-triazine-2,4-diyl)diimino]bis(3-(1H-indol-3-yl)propanoic acid)]
819	273	10.10	27.1	3.19	85.5	> 10000	NS(=O)(=O)c1ccc(CCNc2nc(NC(CO)C(=O)O)nc(NC(CO)C(=O)O)n2)cc1 (stereo not drawn) [compound 21, 2,2′-[(6-({2-(4-sulfamoylphenyl)ethyl}amino)-1,3,5-triazine-2,4-diyl)diimino]bis(3-hydroxypropanoic acid)]
695	239	7.00	34.3	0.52	458	> 10000	NC(=O)CCC(Nc1nc(NCc2ccc(S(N)(=O)=O)cc2)nc(NC(CCC(N)=O)C(=O)O)n1)C(=O)O (stereo not drawn) [compound 17, 2,2′-[(6-({4-sulfamoylbenzyl}amino)-1,3,5-triazine-2,4-diyl)diimino]bis(4-carbamoylbutanoic acid)]
787	169				78.8	3860	CC(Nc1nc(NCCc2ccc(S(N)(=O)=O)cc2)nc(NC(C)C(=O)O)n1)C(=O)O (stereo not drawn) [compound 18, 2,2′-[(6-({2-(4-sulfamoylphenyl)ethyl}amino)-1,3,5-triazine-2,4-diyl)diimino]dipropanoic acid]

— article PMC8537140, “Synthesis and Inhibition Activity Study of Triazinyl-Substituted Amino(alkyl)-benzenesulfonamide Conjugates with Polar and Hydrophobic Amino Acids as Inhibitors of Human Carbonic Anhydrases I, II, IV, IX, and XII” (International Journal of Molecular Sciences, 2021)
